Measured values published in patent publication US20060189591A1, “Five-membered heterocyclic derivative” (DAIICHI PHARMACEUTICAL CO., LTD., priority 2003, published 2006).
Structures can show the parent of a compound that is named as a salt. Where two headings read alike, the source gives them in different places.

How the values were obtained:
[1] = tested on: collagen-induced platelet aggregation; experiment: Inhibitory activity for platelet aggregation (collagen-induced, human platelet rich plasma); format: cell-based; conditions: human PRP, read-out: Inhibition of collagen-induced platelet aggregation, IC50
Experimental: Inhibitory Activity for Platelet Aggregation
Human blood was collected in the presence of 3.13% sodium citrate as an anticoagulant in a volume 1/10 the blood volume. The collected blood was centrifuged at 180×g for 10 minutes so as to separate the upper layer; i.e., platelet rich plasma (PRP) from the blood. The remaining lower layer was further centrifuged at 1,600×g for 10 minutes, and platelet poor plasma ([…]); i.e., the thus-obtained upper layer, was collected. A solution (1 μL) of the compound of the Examples was added to PRP (200 μL), and the mixture was allowed to stand at 37° C. for 2 minutes. Subsequently, collagen (2 μL) was added to the resultant mixture so as to induce platelet aggregation. Percentage of platelet aggregation was measured using PAM-12C (SSR Engineering). Optical transmittance of PPP was employed as the value reflecting the state in which 100% aggregation occurred. Percent of platelet aggregation values of PRP were determined at a series of concentrations of each Example compound and IC50 of each compound was calculated.

[2] = tested on: collagen-induced platelet aggregation; conditions: cited from earlier work
Cyclooxygenase-1 (COX-1) = molecular target: T1, Cyclooxygenase-1 (COX-1) (Ovis aries, UniProt P05979); experiment: COX Inhibitor Screening Assay Kit, COX-1; format: biochemical; conditions: 50 μM compound; read-out: Inhibitory effect against COX-1 at 50 μM (% inhibition)
T1 construct: purchased Cayman Chemical Company 560101
T1 sequence (P05979 25-600): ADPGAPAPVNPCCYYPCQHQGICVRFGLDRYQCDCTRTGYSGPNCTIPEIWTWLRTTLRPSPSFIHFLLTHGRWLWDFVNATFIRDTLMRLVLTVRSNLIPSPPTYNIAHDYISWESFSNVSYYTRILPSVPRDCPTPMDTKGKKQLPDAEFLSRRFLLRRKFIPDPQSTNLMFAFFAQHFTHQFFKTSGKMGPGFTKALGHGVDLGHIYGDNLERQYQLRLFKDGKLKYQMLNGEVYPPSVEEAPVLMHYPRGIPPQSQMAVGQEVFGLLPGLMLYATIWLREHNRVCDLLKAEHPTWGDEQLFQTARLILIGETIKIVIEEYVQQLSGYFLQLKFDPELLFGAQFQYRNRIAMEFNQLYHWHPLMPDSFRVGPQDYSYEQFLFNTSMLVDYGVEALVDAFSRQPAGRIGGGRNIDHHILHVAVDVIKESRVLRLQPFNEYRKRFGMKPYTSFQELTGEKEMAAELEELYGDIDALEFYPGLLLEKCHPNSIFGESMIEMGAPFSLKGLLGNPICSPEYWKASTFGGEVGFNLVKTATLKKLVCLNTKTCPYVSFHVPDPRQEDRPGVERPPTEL
Experimental: (§1) Inhibitory Effects on Cyclooxygenase-1 (COX-1) and Cyclooxygenase-2 (COX-2)
(§2) Inhibitory activity against COX-1 and COX-2 of the compounds produced in the Examples was measured by use of a COX Inhibitor Screening Assay Kit (product of Cayman Chemical Company, Catalog Nos. 560101 and 560121).
(§3) Before starting the measurement, reaction buffer, heme, arachidonic acid, SnCl2, EIA buffer, washing buffer, prostaglandin (PG) screening EIA standard, PG screening acetylcholine esterase (AchE), tracer (chromogenic enzyme […] conjugate), and PG screening EIA antiserum were prepared ready for use.
(§4) (1) Production of PGF2α in the presence of COX-1 or COX-2
(§5) A reaction mixture containing the compound of the Examples (50 μM) and COX-1 or COX-2 was allowed to stand at 37° C. for 10 minutes. Arachidonic acid ([…]) was added thereto, and the resultant mixture was further allowed to stand at 37° C. for 2 minutes. 1N-Hydrochloric acid (50 μL) was added to the reaction mixture, to thereby stop the reaction. SnCl2 solution (100 μL) was added thereto, and the resultant mixture was allowed to stand at room temperature for 5 minutes.
(§6) (2) Quantitative Determination of PGF2α using ELISA
(§7) Antiserum (rabbit anti-PGF2α antibody, 50 μL) was added to the wells of 96 well plate that had been coated with mouse anti-rabbit IgG. A solution of PGF2α-containing mixture obtained above (2000-fold diluted, 50 μL) and AchE tracer (50 μL) were added to the well in this order, and the mixture was allowed to stand at room temperature for 18 hours. The wells were washed 5 times with the washing buffer to remove an excessive AchE tracer, and Ellman reagent (200 μL) was added. After leaving the plate in a dark room for 60 minutes, absorbance was measured at 405 nm.
(§8) (3) Calculation of Inhibitory Activity of the Compound of the Examples
(§9) A calibration curve was obtained by use of the PG screening EIA standard, and the production amount of PGF2α was determined from the absorbance above. Percent inhibition against COX-1 or COX-2 at 50 μM of the compound of the Examples was calculated.

Cyclooxygenase-2 (COX-2) = molecular target: T2, Cyclooxygenase-2 (COX-2) (Homo sapiens, UniProt P35354); experiment: COX Inhibitor Screening Assay Kit, COX-2; format: biochemical; conditions: 50 μM compound; read-out: Inhibitory effect against COX-2 at 50 μM (% inhibition)
T2 construct: purchased Cayman Chemical Company 560121
T2 sequence (P35354 18-604): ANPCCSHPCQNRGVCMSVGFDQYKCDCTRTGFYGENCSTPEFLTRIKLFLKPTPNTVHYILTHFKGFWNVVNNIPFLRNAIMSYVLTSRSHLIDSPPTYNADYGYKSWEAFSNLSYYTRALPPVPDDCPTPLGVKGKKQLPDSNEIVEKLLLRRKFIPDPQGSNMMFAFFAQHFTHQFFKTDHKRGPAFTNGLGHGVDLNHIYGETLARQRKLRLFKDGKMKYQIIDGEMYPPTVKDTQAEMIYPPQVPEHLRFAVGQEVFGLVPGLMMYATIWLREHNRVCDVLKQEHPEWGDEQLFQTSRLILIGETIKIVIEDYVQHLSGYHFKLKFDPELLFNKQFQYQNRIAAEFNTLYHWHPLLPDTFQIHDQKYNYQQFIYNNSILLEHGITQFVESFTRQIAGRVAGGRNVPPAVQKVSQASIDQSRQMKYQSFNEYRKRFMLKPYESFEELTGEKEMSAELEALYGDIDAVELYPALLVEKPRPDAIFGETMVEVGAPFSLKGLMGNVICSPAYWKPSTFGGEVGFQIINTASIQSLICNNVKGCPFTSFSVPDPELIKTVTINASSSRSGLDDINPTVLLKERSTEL
Experimental: as §1, §2, §3, §4, §5, §6, §7, §8, §9

COX = conditions: background art; cited from earlier work

In the case of `COc1ccc(-c2nc(C(=O)N3CCC(OC)CC3)cn2-c2ccccn2)cn1` [Example 65, 1-[2-(6-Methoxy-3-pyridyl)-1-(2-pyridyl)-1H-imidazole-4-carbonyl]-4-methoxypiperidine], the IC50 [1] is reported as 120 nM.
In the case of `CS(=O)(=O)c1ccc(-c2cc(C#N)nn2-c2ccc(F)cc2)cc1` [Compound (A)], the IC50 ([2]; prior-art compound, background art, read-out: IC50 value against collagen-induced platelet aggregation) is given as 5300 nM.
For `COc1ccc(-c2nc(C(=O)N3CCC(F)(F)CC3)cn2-c2ccccn2)cn1` [Example 63, 1-[2-(6-Methoxy-3-pyridyl)-1-(2-pyridyl)-1H-imidazole-4-carbonyl]-4,4-difluoropiperidine], the inhibition at 50 µM (Cyclooxygenase-1 (COX-1)) was 3.4%, the inhibition at 50 µM (Cyclooxygenase-2 (COX-2)) was 7.5% and the IC50 [1] was 20 nM.
In the case of `COc1ccc(-c2nc(C(=O)N3CCN(C)CC3)sc2-c2ccc(OC)cc2)cc1` [thiazole derivative (C)], the COX inhibiting effect (COX) is given as “inhibits COX”.
Work on `COc1ccc(-n2nc(C(=O)N3CCN(C)CC3)nc2-c2ccc(C)cc2)cn1` [Example 37, 1-[1-(6-Methoxy-3-pyridyl)-5-(4-methylphenyl)-1H-1,2,4-triazole-3-carbonyl]-4-methylpiperazine hydrochloride] yielded an inhibition at 50 µM (Cyclooxygenase-1 (COX-1)) of -3.2%, an inhibition at 50 µM (Cyclooxygenase-2 (COX-2)) of -0.8% and an IC50 [1] of 270 nM.
In the case of `COc1ccc(-c2nc(C(=O)N3CCC[C@@H](F)C3)cn2-c2ccccn2)cn1` [Example 72, (3R)-1-[2-(6-Methoxy-3-pyridyl)-1-(2-pyridyl)-1H-imidazole-4-carbonyl]-3-fluoropiperidine], the inhibition at 50 µM (Cyclooxygenase-1 (COX-1)) is reported as 39% and the IC50 [1] is reported as 110 nM.
With `Cc1ccc(-n2cc(C(=O)N3CCN(C)C(=O)C3)nc2-c2ccc(C)nc2)cc1` [Example 32, 1-[1-(4-Methylphenyl)-2-(6-methyl-3-pyridyl)-1H-imidazole-4-carbonyl]-4-methyl-3-oxopiperazine] the inhibition at 50 µM (Cyclooxygenase-1 (COX-1)) was 5.6%, the inhibition at 50 µM (Cyclooxygenase-2 (COX-2)) was -2.2% and the IC50 [1] was 410 nM.
Compound `COc1ccc(-c2nc(C(=O)N3CCC(F)CC3)cn2-c2ccccn2)cn1` [Example 64, 1-[2-(6-Methoxy-3-pyridyl)-1-(2-pyridyl)-1H-imidazole-4-carbonyl]-4-fluoropiperidine] has an inhibition at 50 µM (Cyclooxygenase-1 (COX-1)) of -1.4%, an inhibition at 50 µM (Cyclooxygenase-2 (COX-2)) of 4.5% and an IC50 [1] of 60 nM.
In the case of `COc1ccc(-c2cc(C(F)F)nn2-c2ccc(S(N)(=O)=O)cc2)cc1F` [compound (B)], the “platelet aggregation inhibitory activity” value ([2]; compared with inhibitory activity against COX-2) is listed as “not so strong compared with its inhibitory activity against COX-2”.
In the case of `CN1CCN(C(=O)c2nc(-c3ccccc3)c(-c3ccccc3)o2)CC1` [Example 25, 1-(4,5-diphenyloxazole-2-carbonyl)-4-methylpiperazine], the inhibition at 50 µM (Cyclooxygenase-1 (COX-1)) is reported as 3.1%, the inhibition at 50 µM (Cyclooxygenase-2 (COX-2)) is reported as -8.7% and the IC50 [1] is reported as 710 nM.
With `COc1ccc(-n2nc(C(=O)N3CCN(C)CC3)nc2-c2ccccn2)cn1` [Example 66, 1-[1-(6-Methoxy-3-pyridyl)-5-(2-pyridyl)-1H-1,2,4-triazole-3-carbonyl]-4-methylpiperazine] the IC50 [1] was 700 nM.
`COc1ccc(-n2nc(C(=O)N3CCC(F)(F)CC3)nc2-c2ccc(F)cn2)cn1` [Example 71, 1-[5-(5-Fluoro-2-pyridyl)-1-(6-methoxy-3-pyridyl)-1H-1,2,4-triazole-3-carbonyl]-4,4-difluoropiperidine] gave an inhibition at 50 µM (Cyclooxygenase-1 (COX-1)) of 35.2% and an IC50 [1] of 190 nM.
`COc1ccc(-c2nc(C(=O)N3CCN(C)CC3)cn2-c2ccc(F)cc2)cn1` [Example 6, 1-[1-(4-Fluorophenyl)-2-(6-methoxy-3-pyridyl)-1H-imidazole-4-carbonyl]-4-methylpiperazine] showed an inhibition at 50 µM (Cyclooxygenase-1 (COX-1)) of 28.4%, an inhibition at 50 µM (Cyclooxygenase-2 (COX-2)) of 23.4% and an IC50 [1] of 330 nM.
Compound `COc1ccc(-n2nc(C(=O)N3CCC(F)(F)CC3)nc2-c2ccc(C)cn2)cn1` [Example 74, 1-[1-(6-Methoxy-3-pyridyl)-5-(5-methyl-2-pyridyl)-1H-1,2,4-triazole-3-carbonyl]-4,4-difluoropiperidine] has an inhibition at 50 µM (Cyclooxygenase-1 (COX-1)) of 46.9% and an IC50 [1] of 21 nM.
For `COc1ccc(-n2nc(C(=O)N3CCC(F)(F)CC3)nc2-c2ccc(C#N)cn2)cn1` [Example 67, 1-[5-(5-Cyano-2-pyridyl)-1-(6-methoxy-3-pyridyl)-1H-1,2,4-triazole-3-carbonyl]-4,4-difluoropiperidine], the IC50 [1] was 220 nM.
In the case of `COc1ccc(-c2nc(C(=O)N3CCN(C)CC3)nn2-c2ccc(C)cc2)cn1` [Example 38, 1-[5-(6-Methoxy-3-pyridyl)-1-(4-methylphenyl)-1H-1,2,4-triazole-3-carbonyl]-4-methylpiperazine hydrochloride], the inhibition at 50 µM (Cyclooxygenase-1 (COX-1)) is reported as 3.5%, the inhibition at 50 µM (Cyclooxygenase-2 (COX-2)) is reported as 10.7% and the IC50 [1] is reported as 320 nM.
